According to US20240033358A1, “COMBINATION THERAPIES WITH CHIMERIC ANTIGEN RECEPTOR (CAR)-EXPRESSING CELLS” (Novartis AG, priority 2020, published 2024):

What was measured:
[1] = test system: adult patients with r/r DLBCL; test: JULIET phase 2 trial of tisagenlecleucel: efficacy outcomes (BOR, M3 response, DOR, PFS, OS), safety and B-cell recovery, overall and by subgroup (MYC, DH/TH, TME, pre-infusion LDH); type: in vivo, human; settings: for probability of PFS: MYC(−) patients with normal pre-infusion LDH (n=16); for Survival probability: all infused patients
From the text: Methods: JULIET (NCT02445248) was a global, phase 2 trial of autologous anti-CD19 CAR-T cell therapy in adult patients with r/r DLBCL (relapsed or refractory to ≥2 prior lines of therapy). Median follow-up was 40.3 months. The relationship between MYC overexpression, tumor microenvironment (TME) characteristics (including CD3+ T-cell infiltration, myeloid-derived suppressor cells [MDSCs], and LAG3 expression by fluorescent immunohistochemistry [IHC]), activated B-cell/germinal center B-cell [ABC/GCB] subtype, double/triple-hit (DH/TH) status, and gene mutations including TP53 with efficacy outcomes (best overall response [BOR], response at Month 3 [M3], progression-free and overall survival [PFS/OS]) were assessed. Results: 115 patients received autologous anti-CD19 CAR-T cell infusion. Among patients who were in CR at 6 months, 86% were estimated to maintain the response at 36 months. […] Median OS among all 115 infused patients was 11.1 months (95% CI, 6.6-23.9). […] Median OS of patients with CR (n=37) or PR (n=7) at M3 was not reached; 80% of patients with complete response (CR) had OS benefit≥20 months. […] Of the 23 patients with ongoing CR and B-cell count available, 11 had CD19+ B cells recovered back to normal (80 cells/μL) after 1 year, with similar patterns observed for CD20+ and CD22+ B cells (FIG. 21). The 24 month and 42 month PFS was 33% and 31% respectively (FIG. 16).
Of the 111 patients whose baseline tumor biopsies were tested for MYC expression by immunohistochemistry (IHC), 73 patients were positive for MYC expression (MYC(+) defined as >40% of cells expressing MYC, as measured by IHC) and 38 patients were negative for MYC expression (MYC(−) defined as <40% of cells expressing MYC, as measured by IHC). BOR rates for MYC(+) and MYC(−) patients were 44% (95% CI, 32-56) and 63% (95% CI, 46-78), respectively; M3 response rates were 30% (95% CI, 20-42) and 50% (95% CI, 33-67), respectively (Table 6, and FIG. 14). By month 6, 18/38 (47%) MYC(−) patients were CR/PR compared to 18/73 (25%) of MYC(+) patients. DOR was in a plateau phase at 79% starting in MYC(−) patients (n=24) at 6 months. […] Thus, MYC(+) patients tended to have shorter PFS and OS compared with MYC(−) patients and a high-baseline of MYC expression in patients prior to treatment was associated with worse PFS and OS (FIGS. 4A-4C).
Of the 73 MYC(+) patients, 70 of them were also tested for rearrangements in MYC, BCL2, and BCL6 by FISH in order to identify double hit (DH) (MYC/BCL2 or MYC/BCL6) or triple hit (TH) (MYC/BCL2/BCL6) lymphomas. Of the 70 MYC(+) patients, 20 had DH/TH lymphoma and a BOR rate of 40% (95% CI, 19-64). BOR rate for patients that were MYC(+) but non-DH/TH lymphoma was 48% (95% CI, 34-63).
In the TME analysis of baseline biopsy, a low frequency of tumor infiltrating CD3+ T cells (cutoff of ≤3%; n=16) was associated with shorter median DOR, PFS (2.2 months [95% CI, 0.92-2.8] and 4.2 months [95% Cl, 2.6-21], respectively) and OS (7 months [95% CI, 1.8-12] and 21 months [95% CI, 6.7-NE], respectively) compared with patients with ≥3% CD3+ T cells (n=64) (FIGS. 13A-13C). At month 6, only 2/16 (13%) of patients with <3% tumor-infiltrating CD3+ T cells in baseline tumors were responders compared to 23/36 (64%) responders with >3% tumor infiltrating CD3+ T cells. Patients with low or no (≤3%) tumor-infiltrating CD3+ T cells (n=16) in baseline tumor biopsies were enriched with non-responders (FIG. 22).
Patients with the highest frequency of LAG3+CD3+ cells out of the tumor infiltrating CD3+ T cell population (cutoff of >20%; n=12) at baseline were mostly non-responders at Month 3 (FIG. 23) and all 12 patients with >20% LAG3+CD3+ cells (out of the tumor infiltrating CD3+ T cells) were non-responders at Month 6.
The probability of PFS in MYC(−) patients with normal LDH (n=16) was 81% at 6 months and stabilized at 75% starting at 12 months.

[2] = test system: SuDHL6 cells implanted subcutaneously; test: In vivo double-hit lymphoma model: tumor volume after CART19 cells and/or BCL2 inhibitor; parameters: species or system NOD scid gamma (NSG) mice; settings: treatment from day 15 post-implant; venetoclax 100 mg/kg daily; 1e6 CART19 cells; versus PBS vehicle, UTD or CART19 alone
Procedure: NOD scid gamma (NSG) mice were implanted subcutaneously with a dose of 5e6 SuDHL6 cells/mouse. At day 15 post-implant, mice were randomized into treatment groups, which included: PBS vehicle negative control (FIG. 10A); PBS vehicle and 100 mg/kg of the BCL2 inhibitor, venetoclax (FIG. 10A); 1.45e6 untransduced T cells containing no CAR (UTD) (FIG. 10B); 1.45e6 untransduced T cells containing no CAR (UTD) and 100 mg/kg of the BCL2 inhibitor, venetoclax (FIG. 10B); 1e6 CART19 cells (which were at 68% positivity, total cells injected were 1.45e6) (FIG. 10C); and 1e6 CART19 cells and 100 mg/kg of the BCL2 inhibitor, venetoclax (FIG. 10C). The BCL2 inhibitor was administered daily until sacrifice. Tumor growth was monitored in these mice every three days. Tumor volume was quantified by caliper measurement at each timepoint sampled (FIGS. 10A-C).

[3] = LAG3+CD3+ out of CD3+ T cells ≥20% at baseline (n=12)
[4] = MYC(+) DH/TH patients (n = 20), r/r DLBCL, JULIET
[5] = MYC(+) Non-DH/TH patients (n = 50), r/r DLBCL, JULIET
[6] = MYC(−) patients (n = 38), r/r DLBCL, JULIET
[7] = baseline tumor infiltrating CD3+ T cells ≤3% (n=16)
[8] = of patients with a CR at 6 months
[9] = patients with <20% LAG3+CD3+ T cells (n=68)
[10] = patients with ≥3% CD3+ T cells (n=64)

Substance: Tisagenlecleucel
- PFS ([1]; 24 month): 33%
- PFS ([1]; 42 month): 31%
- median duration of response (DOR) ([1]; 61 patients with a response, 95% CI, 10-NE): not reached
- median OS [1, 3]: 4.3 months
- median PFS [1, 3]: 2.1 months
- Best Overall Response (BOR), % (95% CI) [1, 4]: 40 (19-64) %
- Response at Month 3 (M3), % (95% CI) [1, 4]: 20 (6-44) %
- Best Overall Response (BOR), % (95% CI) [1, 5]: 48 (34-63) %
- Response at Month 3 (M3), % (95% CI) [1, 5]: 36 (23-51) %
- median DOR ([1]; MYC(+) patients): 19 months
- median OS ([1]; MYC(+) patients): 7.8 months
- median PFS ([1]; MYC(+) patients): 2.5 months
- Best Overall Response (BOR), % (95% CI) ([1]; MYC(+) patients (n = 73)): 44 (32-56) %
- Response at Month 3 (M3), % (95% CI) ([1]; MYC(+) patients (n = 73)): 30 (20-42) %
- BOR rate ([1]; MYC(+) patients with DH/TH lymphoma (n=20)): 40%
- patients CR/PR by month 6 ([1]; MYC(+) patients, 18/73): 25%
- median DOR ([1]; MYC(−) patients): not reached
- median OS ([1]; MYC(−) patients): 21 months
- median PFS ([1]; MYC(−) patients): 6.2 months
- Best Overall Response (BOR), % (95% CI) ([1]; MYC(−) patients (n = 38)): 63 (46-78) %
- Response at Month 3 (M3), % (95% CI) ([1]; MYC(−) patients (n = 38)): 50 (33-67) %
- Best Overall Response (BOR), % (95% CI) [1, 6]: 63 (46-78) %
- Response at Month 3 (M3), % (95% CI) [1, 6]: 50 (33-67) %
- DOR plateau phase ([1]; MYC(−) patients (n=24), starting at 6 months): 79%
- probability of PFS ([1]; at 6 months): 81%
- probability of PFS ([1]; stabilized starting at 12 months): 75%
- patients CR/PR by month 6 ([1]; MYC(−) patients, 18/38): 47%
- median OS ([1]; all 115 infused patients): 11.1 months
- patients estimated to maintain the response at 36 months ([1]; among patients who were in CR at 6 months): 86%
- relapse-free probability ([1]; among the 61 patients with a response, at 24 and 30 months): 60.4%
- responses across B-cell lymphoma subsets (MYC positive, MYC negative, DH/TH) ([1]; at 1 month post-treatment): comparable
- Survival probability ([1]; at 12 months): 48.2%
- Survival probability ([1]; at 24 months): 40.4%
- Survival probability ([1]; at 36 months): 36.2%
- median OS [1, 7]: 7 months
- median PFS [1, 7]: 2.2 months
- safety signals ([1]; median follow-up 40.3 months): No new safety signals
- patients with a relapse after 12 months [1, 8]: 1
- patients with relapses after 6 months [1, 8]: 3
- BOR rate ([1]; patients MYC(+) but non-DH/TH lymphoma): 48%
- patients maintaining longer than a 6 month response ([1]; patients identified as MYC positive by IHC): less than 75%
- responders at month 6 ([1]; patients with <3% tumor-infiltrating CD3+ T cells in baseline tumors, 2/16): 13%
- median OS [1, 9]: 21 months
- median PFS [1, 9]: 4.2 months
- responders at month 6 ([1]; patients with >3% tumor infiltrating CD3+ T cells, 23/36): 64%
- patients with complete response (CR) with OS benefit ≥20 months ([1]; patients with CR): 80%
- median OS ([1]; patients with CR (n=37) or PR (n=7) at M3): not reached
- PFS and OS compared with other patients ([1]; patients with DH/TH lymphoma): shorter progression free survival (PFS) and overall survival (OS)
- response rate at M3 ([1]; patients with DH/TH lymphoma): 20%
- relapse frequency ([1]; patients with DH/TH lymphomas and high MYC expression, at 3 months and 6 months): appeared to relapse more frequently
- response rate at M3 ([1]; patients with MYC(+) but non-DH/TH lymphoma): 36%
- median OS [1, 10]: 21 months
- median PFS [1, 10]: 4.2 months
- patients who were non-responders at Month 6 ([1]; the 12 patients with >20% LAG3+CD3+ cells out of tumor infiltrating CD3+ T cells): 12

Substance: 4-(4-{[2-(4-chlorophenyl)-4,4-dimethylcyclohex-1-en-1-yl]methyl}piperazin-1-yl)-N-(3-nitro-4-{[(oxan-4-yl)methyl]amino}benzenesulfonyl)-2-{1H-pyrrolo[2,3162yridinedin-5-yloxy}benzamide [venetoclax]
- tumor growth (tumor volume by caliper) [2]: slowed tumor growth
